The text below walks through data of PMC11579541, “In vitro, in vivo, and in silico approaches for evaluating the preclinical DMPK profiles of ammoxetine, a novel chiral serotonin and norepinephrine reuptake inhibitor” (Frontiers in Pharmacology, 2024).

Data set [1] is described as follows: Hepatic microsome stability assay, RLM. Type of data set: in vitro ADME, rat. Conditions: rat, liver microsomes, pH 7.4; 1 μmol/L, 0.2 g/L microsomes, NADPH. How it is done: (§1) A hepatic microsome stability assay was conducted to investigate the metabolic disposition of ammoxetine. In this assay, 100 μL of ammoxetine (2.5 μmol/L) was incubated at 37°C with 100 μL of liver microsomes (RLM, DLM, MLM, or HLM) formulated in a 5 mmol/L dipotassium hydrogen phosphate (K2HPO4) buffer at pH 7.4. The concentration of microsomes was 0.5 g/L. To initiate the incubations, 50 μL of NADPH solution preincubated at 37°C was added. […] Parallel triplicate samples were prepared for each time point, including 0, 2, 5, 10, 15, 30, 60, 90, and 120 min. To stop the reactions at each time point, 250 μL of ice-cold precipitating agent (acetonitrile/methanol, 1:1, v/v) containing 500 ng/mL of L-phencynonate (IS) was added to the incubation mixture. The samples were vortexed for 2 min at 4°C and then centrifuged at 13,800×g for 10 min. The supernatants were analyzed using an LC-MS-MS approach. […]
(§2) In Formula 3, t1/2 (min) represents the half-life of ammoxetine in liver microsomes. It is calculated by dividing −0.693 by the resulting slope (k e) obtained from a natural logarithm plot of the remaining concentration of ammoxetine against incubation time. […]
(Liver microsomes are a subcellular fraction often used to study metabolism.)

The subject of data set [2] is RLM. The data set is described as follows: Hepatic microsome stability assay, RLM. Type of data set: in vitro ADME, rat. Conditions: predicted hepatic clearance. How it is done:
as §1, §2

The target in data set [3] is T1, CYP 1A2 (Homo sapiens, UniProt P05177).
T1 sequence (P05177 1-516): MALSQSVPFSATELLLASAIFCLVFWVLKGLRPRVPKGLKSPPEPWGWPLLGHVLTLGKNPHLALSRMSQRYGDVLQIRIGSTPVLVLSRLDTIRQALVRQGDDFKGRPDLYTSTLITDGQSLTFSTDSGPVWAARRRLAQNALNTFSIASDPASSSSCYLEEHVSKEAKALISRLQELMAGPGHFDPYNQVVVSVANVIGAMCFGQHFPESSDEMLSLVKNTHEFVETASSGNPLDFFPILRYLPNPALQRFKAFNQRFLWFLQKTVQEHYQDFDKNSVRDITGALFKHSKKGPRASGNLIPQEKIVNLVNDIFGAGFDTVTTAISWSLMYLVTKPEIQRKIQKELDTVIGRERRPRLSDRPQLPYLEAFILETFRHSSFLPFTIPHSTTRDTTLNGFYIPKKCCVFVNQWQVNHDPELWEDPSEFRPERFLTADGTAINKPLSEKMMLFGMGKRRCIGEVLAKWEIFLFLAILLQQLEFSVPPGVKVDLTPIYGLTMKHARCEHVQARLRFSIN
Nature of the data set: Phenotyping with recombinant human CYP 1A2. Type of data set: in vitro ADME. Also noted: purchased BD (Woburn, USA). To be noted: 5 μmol/L, 25 pmol/mL CYP, 1 h. How it is done:
Ammoxetine (final concentration 5 μmol/L) was incubated with recombinant human CYP 3A4, CYP 1A2, CYP 2C9, CYP 2C19, and CYP 2D6 (final concentration 25 pmol/mL) in a 5 mmol/L K2HPO4 buffer at pH 7.4. The incubations were performed in quintuplicate. NADPH (final concentration 1 mmol/L) was added to initiate the incubation process. The mixture was then incubated at 37°C for 1 h. To stop the reaction, 200 μL of ice-cold acetonitrile/methanol (1:1, v/v) containing 500 ng/mL of L-phencynonate (IS) was added. The samples were vortexed for 2 min and centrifuged at 13,800×g and 4°C for 10 min. The supernatants obtained were analyzed using an LC-MS-MS method. To establish appropriate controls, zero-time controls and blank controls in the absence of NADPH were set up in parallel.

Data set [4] in a line: Hepatic microsome stability assay, MLM. Conditions: monkey, liver microsomes, pH 7.4; 1 μmol/L, 0.2 g/L microsomes, NADPH. Type of data set: in vitro ADME, monkey. Here is the method: as §1, §2
The subject of data set [5] is MLM. Nature of the data set: Hepatic microsome stability assay, MLM. Type of data set: in vitro ADME, monkey. Conditions: predicted hepatic clearance. How it is done: as §1, §2
Data set [6] in a line: Hepatic microsome stability assay, DLM. Type of data set: in vitro ADME, dog. To be noted: beagle, dog, liver microsomes, pH 7.4; 1 μmol/L, 0.2 g/L microsomes, NADPH. How it is done:
as §1, §2

In data set [7] the test system is DLM. Nature of the data set: Hepatic microsome stability assay, DLM. Type of data set: in vitro ADME, dog. Conditions: predicted hepatic clearance. How it is done: as §1, §2

In general, half-life refers to the time needed for the level to fall by half in the phase considered. Low readings indicate fast loss, high ones slow loss.

As to `CNCC[C@H](Oc1cccc2c1OCO2)c1cccs1` [ammoxetine], the values for the half-life at 1 μmol/L in data set [1], in data set [4] and in data set [6] were 12.8 ± 0.99 min, 7.57 ± 0.12 min and 138 ± 2.96 min, respectively. For the same compound, the figures for the CL h in data set [2], in data set [5] and in data set [7] were 49.58 ± 0.39 mL/min/kg, 40.73 ± 0.04 mL/min/kg and 16.64 ± 0.17 mL/min/kg, respectively. Besides, the Transformation ratio% in data set [3] is reported as 14.04±2.29%. The “residuary concentration of ammoxetine, Mean±SD” value in data set [3] stood at 5.89±0.16.
